# Tests used:
# [1] = MTT assay for cytotoxicity; assay type: cell-based, Chinese hamster; conditions: Chinese hamster, CHO-K1 cells, read-out: cell viabilities
# CHO-K1 cells = experiment: MTT assay for cytotoxicity; assay type: cell-based, Chinese hamster; conditions: Cricetulus griseus, MTT, 24 h, read-out: half maximal inhibitory concentration (IC50)
# [2] = 28-day oral toxicity test: body weight; assay type: in vivo
# [3] = Solubility in 95% ethanol; assay type: physicochemical; conditions: organic solvent or mixture
# Description: Optical pure antrocin, with a purity > 95%, was provided by Professor Zhen Yang at the School of Chemical Biology and Biotechnology, Peking University. […] A 50 mg/mL ethanol solution of antrocin was prepared as a stock solution, and was diluted before testing. All of the samples were stored at 4 °C.
# [4] = system: Salmonella typhimurium TA98; experiment: Ames test (plate incorporation), TA98
# Sprague Dawley rats = experiment: 28-day oral toxicity test: hematology
# [5] = system: five different strains of Salmonella typhimurium; experiment: Bacterial toxicity test prior to the Ames test; conditions: all tester strains
# [6] = female rats, 7.5 mg/kg oral 28 d
# [7] = female rats, 37.5 mg/kg oral 28 d
# [8] = male rats, 37.5 mg/kg oral 28 d
structure (smiles),measurement,setting,value
"C=C1CC[C@H]2C(C)(C)CCC[C@@]23C(=O)OC[C@@H]13 [Antrocin, (-)-Antrocin]","viability at 24 h, 31.25 μg/mL",[1]; 31.25 μg/mL,81.3 ± 5%
same,"viability at 24 h, 62.5 μg/mL",[1]; 62.5 μg/mL,62.9 ± 8.9%
same,"viability at 24 h, 250 μg/mL",[1]; 250 μg/mL,24.8 ± 1.9%
same,"viability at 24 h, 500 μg/mL",[1]; 500 μg/mL,22.1 ± 1.5%
same,IC50,CHO-K1 cells,~123 µg/mL
same,Body Weight,"[2]; female rats, 7.5 mg/kg oral, 0-Day",163.3 ± 6.3 g
same,Body Weight,"[2]; female rats, 7.5 mg/kg oral, 7-Day",190.0 ± 9.0 g
same,Body Weight Gain,"[2]; female rats, 7.5 mg/kg oral, 7-Day (7th − 0th)",26.7 ± 5.6 g
same,Body Weight,"[2]; female rats, 7.5 mg/kg oral, 14-Day",212.9 ± 12.1 g
same,Body Weight Gain,"[2]; female rats, 7.5 mg/kg oral, 14-Day (14th − 7th)",22.8 ± 6.0 g
same,Body Weight,"[2]; female rats, 7.5 mg/kg oral, 21-Day",229.3 ± 14.6 g
same,Body Weight Gain,"[2]; female rats, 7.5 mg/kg oral, 21-Day (21st − 14th)",16.4 ± 5.2 g
same,Body Weight,"[2]; female rats, 7.5 mg/kg oral, 28-Day",246.6 ± 21.7 g
same,Body Weight Gain,"[2]; female rats, 7.5 mg/kg oral, 28-Day (28th − 21st)",17.3 ± 7.9 g
same,Body Weight,"[2]; female rats, 37.5 mg/kg oral, 0-Day",162.4 ± 6.3 g
same,Body Weight,"[2]; female rats, 37.5 mg/kg oral, 7-Day",188.5 ± 7.9 g
same,Body Weight Gain,"[2]; female rats, 37.5 mg/kg oral, 7-Day (7th − 0th)",26.1 ± 4.1 g
same,Body Weight,"[2]; female rats, 37.5 mg/kg oral, 14-Day",212.0 ± 7.0 g
same,Body Weight Gain,"[2]; female rats, 37.5 mg/kg oral, 14-Day (14th − 7th)",23.4 ± 3.6 g
same,Body Weight,"[2]; female rats, 37.5 mg/kg oral, 21-Day",230.1 ± 9.7 g
same,Body Weight Gain,"[2]; female rats, 37.5 mg/kg oral, 21-Day (21st − 14th)",18.1 ± 5.0 g
same,Body Weight,"[2]; female rats, 37.5 mg/kg oral, 28-Day",241.7 ± 13.6 g
same,Body Weight Gain,"[2]; female rats, 37.5 mg/kg oral, 28-Day (28th − 21st)",11.6 ± 6.3 g
same,Body Weight,"[2]; male rats, 7.5 mg/kg oral, 0-Day",181.4 ± 5.1 g
same,Body Weight,"[2]; male rats, 7.5 mg/kg oral, 7-Day",237.9 ± 13.6 g
same,Body Weight Gain,"[2]; male rats, 7.5 mg/kg oral, 7-Day (7th − 0th)",56.5 ± 10.1 g
same,Body Weight,"[2]; male rats, 7.5 mg/kg oral, 14-Day",295.0 ± 22.5 g
same,Body Weight Gain,"[2]; male rats, 7.5 mg/kg oral, 14-Day (14th − 7th)",57.1 ± 8.9 g
same,Body Weight,"[2]; male rats, 7.5 mg/kg oral, 21-Day",349.5 ± 34.3 g
same,Body Weight Gain,"[2]; male rats, 7.5 mg/kg oral, 21-Day (21st − 14th)",54.5 ± 12.4 g
same,Body Weight,"[2]; male rats, 7.5 mg/kg oral, 28-Day",389.6 ± 46.6 g
same,Body Weight Gain,"[2]; male rats, 7.5 mg/kg oral, 28-Day (28th − 21st)",40.1 ± 12.5 g
same,Body Weight,"[2]; male rats, 37.5 mg/kg oral, 0-Day",183.9 ± 9.0 g
same,Body Weight,"[2]; male rats, 37.5 mg/kg oral, 7-Day",235.6 ± 9.6 g
same,Body Weight Gain,"[2]; male rats, 37.5 mg/kg oral, 7-Day (7th − 0th)",51.8 ± 4.7 g
same,Body Weight,"[2]; male rats, 37.5 mg/kg oral, 14-Day",289.0 ± 17.3 g
same,Body Weight Gain,"[2]; male rats, 37.5 mg/kg oral, 14-Day (14th − 7th)",53.4 ± 13.9 g
same,Body Weight,"[2]; male rats, 37.5 mg/kg oral, 21-Day",332.3 ± 21.0 g
same,Body Weight Gain,"[2]; male rats, 37.5 mg/kg oral, 21-Day (21st − 14th)",43.2 ± 7.7 g
same,Body Weight,"[2]; male rats, 37.5 mg/kg oral, 28-Day",367.6 ± 30.6 g
same,Body Weight Gain,"[2]; male rats, 37.5 mg/kg oral, 28-Day (28th − 21st)",35.3 ± 12.9 g
same,solubility,[3],~133 mg/mL
same,Number of Revertant,"[4]; TA98, with S9, 0.003125 mg/plate",33.7 ± 1.2 Colony/Plate
same,Number of Revertant,"[4]; TA98, with S9, 0.00625 mg/plate",32.0 ± 1.6 Colony/Plate
same,Number of Revertant,"[4]; TA98, with S9, 0.025 mg/plate",34.3 ± 3.3 Colony/Plate
same,Number of Revertant,"[4]; TA98, with S9, 0.05 mg/plate",36.0 ± 4.3 Colony/Plate
same,Number of Revertant,"[4]; TA98, without S9, 0.00625 mg/plate",246.0 ± 16.4 Colony/Plate
same,Number of Revertant,"[4]; TA98, without S9, 0.025 mg/plate",278.3 ± 4.5 Colony/Plate
same,Number of Revertant,"[4]; TA98, without S9, 0.05 mg/plate",270.0 ± 11.2 Colony/Plate
same,bacterial mutagenicity,"[4]; preliminary tests, TA98, 100 μg/plate",no bacterial mutagenicity
same,BASO,Sprague Dawley rats; [6],0.0 ± 0.1%
same,EOSIN,Sprague Dawley rats; [6],2.1 ± 1.7%
same,HCT,Sprague Dawley rats; [6],45.0 ± 3.7%
same,HGB,Sprague Dawley rats; [6],14.7 ± 1.2 g/dL
same,LYMPH,Sprague Dawley rats; [6],86.1 ± 5.4%
same,MCH,Sprague Dawley rats; [6],19.5 ± 0.8 pg
same,MCHC,Sprague Dawley rats; [6],32.7 ± 0.3 g/dL
same,MCV,Sprague Dawley rats; [6],59.7 ± 1.7 fL
same,MONO,Sprague Dawley rats; [6],2.3 ± 1.1%
same,NEUT,Sprague Dawley rats; [6],9.6 ± 3.3%
same,PLT,Sprague Dawley rats; [6],606.0 ± 430.1 * 10^3/µL
same,RBC,Sprague Dawley rats; [6],7.5 ± 0.6 10^6/µL
same,WBC,Sprague Dawley rats; [6],8.7 ± 3.4 10^3/µL
same,BASO,Sprague Dawley rats; [7],0.2 ± 0.2%
same,EOSIN,Sprague Dawley rats; [7],1.2 ± 0.3%
same,HCT,Sprague Dawley rats; [7],48.4 ± 2.0%
same,HGB,Sprague Dawley rats; [7],15.8 ± 0.5 g/dL
same,LYMPH,Sprague Dawley rats; [7],84.5 ± 4.1%
same,MCH,Sprague Dawley rats; [7],19.8 ± 0.5 pg
same,MCHC,Sprague Dawley rats; [7],32.7 ± 0.4 g/dL
same,MCV,Sprague Dawley rats; [7],60.6 ± 1.0 fL
same,MONO,Sprague Dawley rats; [7],3.2 ± 2.0%
same,NEUT,Sprague Dawley rats; [7],10.9 ± 3.4%
same,PLT,Sprague Dawley rats; [7],1065.6 ± 199.8 10^3/µL
same,RBC,Sprague Dawley rats; [7],8.0 ± 0.4 10^6/µL
same,WBC,Sprague Dawley rats; [7],7.8 ± 4.5 10^3/µL
same,BASO,"Sprague Dawley rats; male rats, 7.5 mg/kg oral 28 d",0.0 ± 0.1%
same,EOSIN,"Sprague Dawley rats; male rats, 7.5 mg/kg oral 28 d",1.2 ± 0.3%
same,HCT,"Sprague Dawley rats; male rats, 7.5 mg/kg oral 28 d",45.8 ± 1.2%
same,HGB,"Sprague Dawley rats; male rats, 7.5 mg/kg oral 28 d",15.1 ± 0.4 g/dL
same,LYMPH,"Sprague Dawley rats; male rats, 7.5 mg/kg oral 28 d",77.2 ± 1.7 %
same,MCH,"Sprague Dawley rats; male rats, 7.5 mg/kg oral 28 d",19.7 ± 0.5 pg
same,MCHC,"Sprague Dawley rats; male rats, 7.5 mg/kg oral 28 d",32.9 ± 0.3 g/dL
same,MCV,"Sprague Dawley rats; male rats, 7.5 mg/kg oral 28 d",59.8 ± 1.5 fL
same,MONO,"Sprague Dawley rats; male rats, 7.5 mg/kg oral 28 d",2.7 ± 2.4%
same,NEUT,"Sprague Dawley rats; male rats, 7.5 mg/kg oral 28 d",18.9 ± 3.1%
same,PLT,"Sprague Dawley rats; male rats, 7.5 mg/kg oral 28 d",1235.2 ± 20.9 * 10^3/µL
same,RBC,"Sprague Dawley rats; male rats, 7.5 mg/kg oral 28 d",7.7 ± 0.1 10^6/µL
same,WBC,"Sprague Dawley rats; male rats, 7.5 mg/kg oral 28 d",5.3 ± 2.0 10^3/µL
same,BASO,Sprague Dawley rats; [8],0.1 ± 0.1%
same,EOSIN,Sprague Dawley rats; [8],0.6 ± 0.4%
same,HCT,Sprague Dawley rats; [8],48.3 ± 3.2%
same,HGB,Sprague Dawley rats; [8],15.7 ± 0.9 g/dL
same,LYMPH,Sprague Dawley rats; [8],83.9 ± 3.9 %
same,MCH,Sprague Dawley rats; [8],19.4 ± 0.6 pg
same,MCHC,Sprague Dawley rats; [8],32.4 ± 0.6 g/dL
same,MCV,Sprague Dawley rats; [8],59.8 ± 1.3 fL
same,MONO,Sprague Dawley rats; [8],1.8 ± 1.1%
same,NEUT,Sprague Dawley rats; [8],13.6 ± 3.7 %
same,PLT,Sprague Dawley rats; [8],1372.2 ± 161.8 * 10^3/µL
same,RBC,Sprague Dawley rats; [8],8.1 ± 0.6 10^6/µL
same,WBC,Sprague Dawley rats; [8],6.4 ± 1.1 10^3/µL
same,maximum non-toxic concentration,[5],0.05 mg/plate

# Source: PMC10301922, “Anti-Oxidant, Anti-Mutagenic Activity and Safety Evaluation of Antrocin” (Toxics, 2023)
